# Measured values taken from patent publication US20210308173A1, “PHARMACEUTICAL COMPOSITION COMPRISING CYCLODEXTRIN COMPLEXES OF ANETHOLE TRITHIONE OR DERIVATIVES THEREOF” (priority 2018, published 2021).
# Columns and labels:
# [1] = Co-solvent addition: AOL solubility; assay type: physicochemical; settings: for solubility at 4 h: aqueous with cosolvent or surfactant or cyclodextrin, thermodynamic from solid
# Experimental: SBE-β-CD compatible excipients, namely polyethylene glycol and polysorbate (Tween), were evaluated for their AOL aqueous solubilizing power. Screening was carried out in same conditions as that of solubilization screening by cyclodextrins (see Example 3).
# Briefly, 20% (w/w) solutions of each excipient were prepared. An excess of AOL was added and the solutions were analyzed by HPLC after 4 hours of stirring.
# The effect of the combination of SBE-β-CD and Tween 80 was measured in a comparative assay by solubilizing AOL in: (A) Tween 80, 10% (w/w); (B) SBE-β-CD 10% (w/w) (C) Tween 80 and SBE-β-CD 10% (w/w) each; (D) Tween 80 20% (w/w) (E) SBE-β-CD 20% (w/w); and (F) Tween 80 and SBE-β-CD 20% (w/w) each.
# Further assays, resumed in Tables 7 and 8, confirmed that Tween 80/SBE-β-CD is a promising excipient mixture for the solubilization of AOL.
# [2] = Cyclodextrin solubilization screening of AOL; assay type: physicochemical; settings: for CD/AOL molar ratio RM / CD/AOL weight ratio Rm: 25° C.; for solubility at 3 h / solubility at 20 h: 25 °C, thermodynamic from solid
# Experimental: This assay evaluated the potential of different cyclodextrins to solubilize AOL. A solubilization screening is carried out with the four cyclodextrins (CD) selected from α-CD, γ-CD, HP-β-CD and SBE-β-CD.
# Aqueous solutions containing 100 mM of cyclodextrin are prepared in pure water. An excess of AOL (approximately 5 mg/mL) is suspended in 2 mL of each of these cyclodextrin solutions. Each duplicate sample is shaken at 25° C. for 3 hours and 20 hours (vortex to 1400 rpm). Each sample is centrifuged (12,500 g) then filtered through a 0.45 μm membrane. The solubility of the AOL is quantified by HPLC as previously described (Example 2).
structure (smiles),measurement,setting,value
"COc1ccc(-c2cc(=S)ss2)cc1 [AOL, 5-(4-methoxyphenyl)-3H-1,2-dithiole-3-thione]",solubility at 4 h,"[1]; aqueous HP-β-CD solution, HP-β-CD 30% (w/w), Tween 80 20% (w/w)",1680 µg/mL
same,solubility at 4 h,"[1]; aqueous HP-β-CD solution, HP-β-CD 30% (w/w), co-solvent 0% (w/w)",540 µg/mL
same,solubility at 4 h,"[1]; aqueous SBE-β-CD solution, SBE-β-CD 20% (w/w), Cremophor 10% (w/w)",644 µg/mL
same,solubility at 4 h,"[1]; aqueous SBE-β-CD solution, SBE-β-CD 20% (w/w), PVP 12PF 0.5% (w/w)",389 µg/mL
same,solubility at 4 h,"[1]; aqueous SBE-β-CD solution, SBE-β-CD 20% (w/w), PVP 12PF 2.0% (w/w)",371 µg/mL
same,solubility at 4 h,"[1]; aqueous SBE-β-CD solution, SBE-β-CD 20% (w/w), Tween 80 2% (w/w)",374 µg/mL
same,solubility at 4 h,"[1]; aqueous SBE-β-CD solution, SBE-β-CD 20% (w/w), Tween 80 10% (w/w)",587 µg/mL
same,solubility at 4 h,"[1]; aqueous SBE-β-CD solution, SBE-β-CD 20% (w/w), Tween 80 20% (w/w)",829 µg/mL
same,solubility at 4 h,"[1]; aqueous SBE-β-CD solution, SBE-β-CD 20% (w/w), co-solvent 0% (w/w)",375 µg/mL
same,solubility at 4 h,"[1]; aqueous SBE-β-CD solution, SBE-β-CD 30% (w/w), Cremophor 10% (w/w)",814 µg/mL
same,solubility at 4 h,"[1]; aqueous SBE-β-CD solution, SBE-β-CD 30% (w/w), PVP 12PF 0.5% (w/w)",668 µg/mL
same,solubility at 4 h,"[1]; aqueous SBE-β-CD solution, SBE-β-CD 30% (w/w), PVP 12PF 2.0% (w/w)",670 µg/mL
same,solubility at 4 h,"[1]; aqueous SBE-β-CD solution, SBE-β-CD 30% (w/w), Tween 80 2% (w/w)",630 µg/mL
same,solubility at 4 h,"[1]; aqueous SBE-β-CD solution, SBE-β-CD 30% (w/w), Tween 80 10% (w/w)",616 µg/mL
same,solubility at 4 h,"[1]; aqueous SBE-β-CD solution, SBE-β-CD 30% (w/w), Tween 80 20% (w/w)",1280 µg/mL
same,solubility at 4 h,"[1]; aqueous SBE-β-CD solution, SBE-β-CD 30% (w/w), co-solvent 0% (w/w)",685 µg/mL
same,influence of PVP 12PF on solubility,[1]; cyclodextrin media,did not had any influence
same,solubility in Tween 80 compared with SBE-β-CD solutions,[1]; same temperature and concentration of excipient,higher solubility in Tween 80
same,CD/AOL molar ratio RM,"[2]; HP-β-CD 100 mM, stirring 3 h",218
same,CD/AOL weight ratio Rm,"[2]; HP-β-CD 100 mM, stirring 3 h",1270
same,CD/AOL molar ratio RM,"[2]; HP-β-CD 100 mM, stirring 20 h",252
same,CD/AOL weight ratio Rm,"[2]; HP-β-CD 100 mM, stirring 20 h",1465
same,CD/AOL molar ratio RM,"[2]; SBE-β-CD 100 mM, stirring 3 h",169
same,CD/AOL weight ratio Rm,"[2]; SBE-β-CD 100 mM, stirring 3 h",1575
same,CD/AOL molar ratio RM,"[2]; SBE-β-CD 100 mM, stirring 20 h",150
same,CD/AOL weight ratio Rm,"[2]; SBE-β-CD 100 mM, stirring 20 h",1395
same,solubility at 3 h,"[2]; aqueous cyclodextrin solution, aqueous with cosolvent or surfactant or cyclodextrin, HP-β-CD 100 mM, stirring 3 h",110 µg/mL
same,solubility at 20 h,"[2]; aqueous cyclodextrin solution, aqueous with cosolvent or surfactant or cyclodextrin, HP-β-CD 100 mM, stirring 20 h",95.5 µg/mL
same,solubility at 3 h,"[2]; aqueous cyclodextrin solution, aqueous with cosolvent or surfactant or cyclodextrin, SBE-β-CD 100 mM, stirring 3 h",142 µg/mL
same,solubility at 20 h,"[2]; aqueous cyclodextrin solution, aqueous with cosolvent or surfactant or cyclodextrin, SBE-β-CD 100 mM, stirring 20 h",161 µg/mL
same,solubility at 3 h,"[2]; aqueous cyclodextrin solution, aqueous with cosolvent or surfactant or cyclodextrin, α-CD 100 mM, stirring 3 h",8.83 µg/mL
same,solubility at 20 h,"[2]; aqueous cyclodextrin solution, aqueous with cosolvent or surfactant or cyclodextrin, α-CD 100 mM, stirring 20 h",13.5 µg/mL
same,solubility at 3 h,"[2]; aqueous cyclodextrin solution, aqueous with cosolvent or surfactant or cyclodextrin, γ-CD 100 mM, stirring 3 h",2.86 µg/mL
same,solubility at 20 h,"[2]; aqueous cyclodextrin solution, aqueous with cosolvent or surfactant or cyclodextrin, γ-CD 100 mM, stirring 20 h",1.67 µg/mL
same,solubility at 3 h,"[2]; water, None-H2O, stirring 3 h",0.22 µg/mL
same,solubility at 20 h,"[2]; water, None-H2O, stirring 20 h",0.16 µg/mL
same,CD/AOL molar ratio RM,"[2]; α-CD 100 mM, stirring 3 h",2721
same,CD/AOL weight ratio Rm,"[2]; α-CD 100 mM, stirring 3 h",11010
same,CD/AOL molar ratio RM,"[2]; α-CD 100 mM, stirring 20 h",1779
same,CD/AOL weight ratio Rm,"[2]; α-CD 100 mM, stirring 20 h",7198
same,CD/AOL molar ratio RM,"[2]; γ-CD 100 mM, stirring 3 h",8399
same,CD/AOL weight ratio Rm,"[2]; γ-CD 100 mM, stirring 3 h",45316
same,CD/AOL molar ratio RM,"[2]; γ-CD 100 mM, stirring 20 h",14405
same,CD/AOL weight ratio Rm,"[2]; γ-CD 100 mM, stirring 20 h",77723
